Experimental data reported in patent US9708266B2, “Cyclohexyl pyridine derivative” (priority 2014, dated 2017).

Target: NK1 receptor (Meriones unguiculatus (Mongolian jird) (Gerbillus unguiculatus), UniProt Q5DUB1)
Test: Effect on GR73632-induced foot-tapping
Assay type: in vivo
Details: male gerbil, 0.1 mg/kg iv, GR73632 icv after four hours
Description: The test compound solution was prepared by dissolving the test compound in a vehicle (a mixture of 50% N,N-dimethylacetamide (Wako Pure Chemical Industries), 30% propylene glycol (Wako Pure Chemical Industries), 4% 2-hydroxypropyl-[…] (Wako Pure Chemical Industries) and 16% distilled water).
A male gerbil (Japan SLC) was anesthetized with isoflurane, and 0.1 mg/kg of a test compound was administered from the jugular vein. After four hours, GR73632 (5 pmol/5 μl saline), which is an NK1 receptor agonist, was administered into the cerebral ventricle at the part 1 mm lateral to and 4.5 mm below the bregma in the head, under anesthesia with isoflurane. After the administration, the gerbil was moved to an observation cage, and the foot-tapping period during 30 minutes after the recovery of the righting reflex was measured. The foot-tapping inhibition rate (%) of each test compound was calculated by the following equation. Foot-tapping inhibition rate (%)={1−(Foot-tapping period when test compound was administered)/(Foot-tapping period when solvent was administered)}×100 (2) Measurement of Drug Concentrations

Chain of NK1 receptor (Q5DUB1 whole entry): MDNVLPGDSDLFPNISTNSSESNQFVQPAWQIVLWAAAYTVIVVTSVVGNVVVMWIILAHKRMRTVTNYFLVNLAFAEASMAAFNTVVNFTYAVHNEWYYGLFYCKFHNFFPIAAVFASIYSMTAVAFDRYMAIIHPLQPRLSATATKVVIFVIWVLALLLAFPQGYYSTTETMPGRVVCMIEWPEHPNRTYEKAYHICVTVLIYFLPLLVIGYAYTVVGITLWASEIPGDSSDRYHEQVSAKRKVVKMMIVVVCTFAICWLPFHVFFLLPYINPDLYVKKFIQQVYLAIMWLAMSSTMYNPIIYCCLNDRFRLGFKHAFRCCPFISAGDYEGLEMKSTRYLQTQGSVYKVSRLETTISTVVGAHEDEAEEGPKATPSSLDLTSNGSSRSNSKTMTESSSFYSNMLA

| Inhibition (foot-tapping inhibition rate) | SMILES |
| --- | --- |
| 100% | Cc1cc(F)ccc1-c1cc([C@H]2CC[C@@H](CC(=O)O)CC2)nc(C#N)c1N(C)C(=O)C(C)(C)c1cc(C(F)(F)F)cc(C(F)(F)F)c1 [Example 21, cis-{4-[5-{[2-(3,5-bistrifluoromethylphenyl)-2-methylpropionyl]methylamino}-6-cyano-4-(4-fluoro-2-methylphenyl)pyridin-2-yl]cyclohexyl}acetic acid] |
| 90% | Cc1cc(F)ccc1-c1cc(C2CCC3(CC2)CC3C(=O)O)ncc1N(C)C(=O)C(C)(C)c1cc(C(F)(F)F)cc(C(F)(F)F)c1 (stereo not shown) [Example 7, 6-[5-{[2-(3,5-Bistrifluoromethylphenyl)-2-methylpropionyl]methylamino}-4-(4-fluoro-2-methylphenyl)pyridin-2-yl]spiro[2.5]octane-1-carboxylic acid] |
| 100% | Cc1cc(F)ccc1-c1cc(C2CCCC(CC(=O)O)C2)ncc1N(C)C(=O)C(C)(C)c1cc(C(F)(F)F)cc(C(F)(F)F)c1 (stereo not shown) [Example 3, {3-[5-{[2-(3,5-Bistrifluoromethylphenyl)-2-methylpropionyl]methylamino}-4-(4-fluoro-2-methylphenyl)pyridin-2-yl]cyclohexyl}acetic acid] |
| 93% | Cc1ccccc1-c1cc(C2CCC(CC(=O)O)CC2)nc(C#N)c1N(C)C(=O)C(C)(C)c1cc(C(F)(F)F)cc(C(F)(F)F)c1 (stereo not shown) [Example 16, [4-(5-{[2-(3,5-Bistrifluoromethylphenyl)-2-methylpropionyl]methylamino}-6-cyano-4-ortho-tolylpyridin-2-yl)cyclohexyl]acetic acid] |
| 98% | Cc1cc(F)ccc1-c1cc(C2CCC(C(=O)O)CC2)ncc1N(C)C(=O)C(C)(C)c1cc(C(F)(F)F)cc(C(F)(F)F)c1 (stereo not shown) [Example 1, 4-[5-{[2-(3,5-Bistrifluoromethylphenyl)-2-methylpropionyl]methylamino}-4-(4-fluoro-2-methylphenyl)pyridin-2-yl]cyclohexanecarboxylic acid] |
| 77% | Cc1cc(F)ccc1-c1cc(C2(C)CCCC(CC(=O)O)C2)ncc1N(C)C(=O)C(C)(C)c1cc(C(F)(F)F)cc(C(F)(F)F)c1 (stereo not shown) [Example 4, {3-[5-{[2-(3,5-Bistrifluoromethylphenyl)-2-methylpropionyl]methylamino}-4-(4-fluoro-2-methylphenyl)pyridin-2-yl]-3-methylcyclohexyl}acetic acid] |
| 100% | Cc1cc(F)ccc1-c1cc(C2CCC(C)(CC(=O)O)CC2)ncc1N(C)C(=O)C(C)(C)c1cc(C(F)(F)F)cc(C(F)(F)F)c1 (stereo not shown) [Example 15, {4-[5-{[2-(3,5-Bistrifluoromethylphenyl)-2-methylpropionyl]methylamino}-4-(4-fluoro-2-methylphenyl)pyridin-2-yl]-1-methylcyclohexyl}acetic acid] |
| 97% | Cc1cc(F)ccc1-c1cc(C2CCC(C(C)C(=O)O)CC2)ncc1N(C)C(=O)C(C)(C)c1cc(C(F)(F)F)cc(C(F)(F)F)c1 (stereo not shown) [Example 10, 2-{4-[5-{[2-(3,5-Bistrifluoromethylphenyl)-2-methylpropionyl]methylamino}-4-(4-fluoro-2-methylphenyl)pyridin-2-yl]cyclohexyl}propionic acid] |
| 95% | Cc1cc(F)ccc1-c1cc([C@H]2CC[C@H](C(C)(C)C(=O)O)CC2)ncc1N(C)C(=O)C(C)(C)c1cc(C(F)(F)F)cc(C(F)(F)F)c1 [Example 11, trans-2-{4-[5-{[2-(3,5-Bistrifluoromethylphenyl)-2-methylpropionyl]methylamino}-4-(4-fluoro-2-methylphenyl)pyridin-2-yl]cyclohexyl}-2-methylpropionic acid] |
| 100% | Cc1cc(F)ccc1-c1cc(C2CCC(CC(=O)O)CC2)nc(C#N)c1N(C)C(=O)C(C)(C)c1cc(C(F)(F)F)cc(C(F)(F)F)c1 (stereo not shown) [Example 8, {4-[5-{[2-(3,5-Bistrifluoromethylphenyl)-2-methylpropionyl]methylamino}-6-cyano-4-(4-fluoro-2-methylphenyl)pyridin-2-yl]cyclohexyl}acetic acid] |
